From patent publication US11667630B2, “Nitrogen-containing 6-membered cyclic compound” (Asahi Kasei Pharma Corporation, priority 2017, dated 2023) come the findings set out here.

For orientation: IC50 means the concentration needed to halve the response being measured. A low value points to higher potency. Usually EC50 stands for the concentration that produces a half-maximal response. The low end stands for higher potency in that assay, the high end for lower potency in that assay.

The target of test [1] is T1, human EP4 receptor (Homo sapiens, UniProt P35408). The test can be described thus: Receptor binding test, [3H]PGE2 binding inhibition, EP4. The arrangement: purchased Merck Millipore HTS142M. The conditions noted are these: [3H]PGE2 1.24 nmol/L, membrane fraction HTS142M, 25°C 60 minutes. The method, then: In order to evaluate selectivity to each EP receptor subtype, [^3H]PGE2 binding-inhibition activities of test compounds for cell membranes on which human EP2, human EP3, and human EP4 receptors were stably expressed were measured.
T1 sequence (P35408 whole entry): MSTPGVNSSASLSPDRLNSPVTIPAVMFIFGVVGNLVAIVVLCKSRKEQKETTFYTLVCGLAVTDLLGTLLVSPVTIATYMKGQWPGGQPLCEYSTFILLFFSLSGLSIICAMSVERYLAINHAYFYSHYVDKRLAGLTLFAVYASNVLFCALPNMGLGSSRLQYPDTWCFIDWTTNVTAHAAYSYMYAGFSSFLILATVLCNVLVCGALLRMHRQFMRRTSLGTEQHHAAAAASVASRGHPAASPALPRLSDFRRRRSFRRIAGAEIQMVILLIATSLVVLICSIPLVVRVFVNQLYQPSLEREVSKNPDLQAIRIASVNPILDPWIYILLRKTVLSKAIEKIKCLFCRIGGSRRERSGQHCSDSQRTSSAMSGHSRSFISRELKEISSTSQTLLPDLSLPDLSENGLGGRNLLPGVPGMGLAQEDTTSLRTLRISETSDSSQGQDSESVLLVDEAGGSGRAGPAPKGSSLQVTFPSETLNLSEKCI
As the membrane fractions of the prostaglandin E receptors EP2, EP3, and EP4, 10.0 μg protein/tube each of HTS185M, HTS092M, and HTS142M of Merck Millipore were used, respectively. Each membrane fraction was incubated with a reaction mixture (250 μL/tube) containing a test compound and [3H]PGE2 at 25° C. for 60 minutes. […] After the reaction, the membrane fraction was collected on filter paper by using a cell harvester, the filter paper was transferred to a measurement vial, and the measurement was performed on a liquid scintillation counter.
The nonspecific binding was determined as binding observed in the presence of excess amount (10 μM) of unlabeled PGE2. The measurement of the [3H]PGE2 binding-inhibiting activity of a test compound was performed by adding the test compound at various concentrations. The following buffers were used for the reaction.
Buffer for EP4: 50 mmol/L HEPES-NaOH (pH7.4) containing 5 mmol/L MgCl2, 1 mmol/L CaCl2), and 0.2% BSA

For test [2], the target named is T1, human EP4 receptor. Nature of the test: Measurement of EP4 agonist activity (cAMP production). Format: cell-based. The arrangement: expressed in transfected cells; host or cells: HEK293. The conditions noted are these: cAMP production in HEK293 cells stably expressing human EP4 receptor; average values where measured two or more times. A general note: Cyclic AMP is a second messenger, typically raised through Gs and lowered through Gi signalling.

Take `O=C(O)c1ccc(CCN2C(=O)SCCN2CC[C@@H](O)Cc2cccc(C#Cc3ccsc3)c2)s1` [Example 23, (S)-5-(2-(4-(3-Hydroxy-4-(3-(thiophen-3-ylethynyl)phenyl)butyl)-2-oxo-1,3,4-thiadiazinan-3-yl)ethyl)thiophene-2-carboxylic acid]: in test [1], the half-maximal inhibitory concentration (IC50) was 4.35 nM. Also, the EC50 in test [2] was 0.033 nM.
